Data published in patent publication US8951976B2, “Progression inhibitor for disease attributed to abnormal accumulation of liver fat” (Kissei Pharmaceutical Co., Ltd., priority 2004, dated 2015).

Assays:
SGLT2 = biological target: T1, SGLT2 (Mus musculus, UniProt Q923I7); test: Test to confirm inhibitory effect on accumulation of liver lipids in KKAy mice bearing fatty liver; format: in vivo, KKA^y mice
T1 construct: Using KKA^y mice (KKAy/Ta Jcl, CLEA Japan, Inc.) as experimental animals; tissue CLEA Japan, Inc. KKAy/Ta Jcl; host or cells: living KKAy mice (whole animal; SGLT2 acts in kidney)
T1 sequence (Q923I7 1-670): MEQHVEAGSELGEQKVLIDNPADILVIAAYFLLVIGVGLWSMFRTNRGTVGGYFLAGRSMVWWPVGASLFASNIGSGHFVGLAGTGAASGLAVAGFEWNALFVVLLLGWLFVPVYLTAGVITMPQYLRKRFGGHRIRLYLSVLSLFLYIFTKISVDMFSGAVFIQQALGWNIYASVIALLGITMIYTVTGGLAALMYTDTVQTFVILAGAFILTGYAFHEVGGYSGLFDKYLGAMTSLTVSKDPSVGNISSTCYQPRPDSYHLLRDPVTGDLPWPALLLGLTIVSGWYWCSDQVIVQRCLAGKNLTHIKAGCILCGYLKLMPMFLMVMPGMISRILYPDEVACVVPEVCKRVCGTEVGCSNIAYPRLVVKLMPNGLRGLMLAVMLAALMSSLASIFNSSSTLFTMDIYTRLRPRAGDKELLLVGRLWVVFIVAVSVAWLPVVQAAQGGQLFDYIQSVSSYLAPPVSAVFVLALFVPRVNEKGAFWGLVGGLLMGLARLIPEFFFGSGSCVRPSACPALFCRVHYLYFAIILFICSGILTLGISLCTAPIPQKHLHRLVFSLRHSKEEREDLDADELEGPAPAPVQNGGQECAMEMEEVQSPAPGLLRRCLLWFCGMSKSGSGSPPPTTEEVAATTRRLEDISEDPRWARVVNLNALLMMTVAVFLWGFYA
Procedure: Using KKA^y mice (KKAy/Ta Jcl, CLEA Japan, Inc.) as experimental animals, inhibitory effects on accumulation of lipids in liver based on SGLT2 inhibitory effects were evaluated. KKA^y mice bearing fatty liver were prepared as follows.
Female 10-week-old KKA^y mice were bred preparatorily for 4 weeks. During preparatory breeding until 4 days before grouping, the mice were fed on a pellet CE-2 diet for laboratory animal (CLEA Japan, Inc.) under free feeding. From 4 days before grouping, the food was changed to a powdered CE-2 diet for laboratory animal (CLEA Japan, Inc.). At the age of 14 weeks, body weight, blood glucose level and plasma alanine aminotransferase level (ALT) were measured for grouping. The mice were grouped (5 animals in each group) so that in any of these three laboratory values no significant difference was observed between the two groups. In the second group, the mice were fed on a powdered CE-2 diet for laboratory animal (CLEA Japan, Inc.) containing 1000 ppm of 2-(4-methoxybenzyl)phenyl 6-O-ethoxycarbonyl-β-D-glucopyranoside (hereinafter referred to as Compound A) as a SGLT2 inhibitor for 11 days, and then triglyceride contents in liver were measured.
Method of measurement of liver triglyceride content was described as follows. • 1) Ice-cold saline (Otsuka Pharmaceutical Co., Ltd.) was added to liver in the proportion of 4 mL of ice-cold saline to 1 g of the liver, and then a homogenized suspension was prepared in a pestle homogenizer. • 2) To 100 μL of the suspension 1), 800 μL of Folch reagent (chloroform:methanol=2:1) was added and mixed vigorously, and total lipids was extracted. • 3) The mixture 2) was centrifuged (3000 rpm, for 10 min, at room temperature) using a cooled centrifuge (KUBOTA8900, KUBOTA Corporation). • 4) The lower layer after centrifugation in 3) was collected and transferred to another container, and that is referred to as Solution (A). • 5) To the upper layer after centrifugation in 3), 150 μL of Folch reagent was added and mixed vigorously, and centrifugation by the operation identical to that in 3) was performed. […]

[1] = cited from earlier work

## CCOC(=O)OC[C@H]1O[C@@H](Oc2ccccc2Cc2ccc(OC)cc2)[C@H](O)[C@@H](O)[C@@H]1O [Compound A, 2-(4-methoxybenzyl)phenyl 6-O-ethoxycarbonyl-β-D-glucopyranoside]
SGLT2; administration to KKA^y mice bearing fatty liver, compared to drug-untreated mice
  lipid accumulation in liver: significantly suppressed
SGLT2; female KKA^y mice bearing fatty liver, diet containing 1000 ppm for 11 days, mean ± standard error of the mean, * significant (5% or less) vs drug-untreated group
  Liver triglyceride content: 25.4 ± 3.6* mg/g liver
SGLT2; orally administered to rat (so in the source), in comparison with no administration
  increase of lipid accumulative amount in liver: inhibited significantly

## CCOC(=O)C(C)(C)Oc1ccc(Cl)cc1 [clofibrate]
[1]; Patent Reference 22, while it lowers neutral fat or cholesterol in blood
  lipid accumulation in liver as a side effect: causes lipid accumulation in liver

## CCCCNC(=O)NS(=O)(=O)c1ccc(C)cc1 [tolbutamide]
[1]; non-Patent Reference 7
  suppressive effects on lipid accumulation in liver: does not exhibit suppressive effects
